Source: patent US11117905B2, “Bisaryl heterocycles as NRF2 activators” (GLAXOSMITHKLINE INTELLECTUAL PROPERTY DEVELOPMENT LIMITED, priority 2016, dated 2021)

Tested on: NQO1 specific enzyme activity in BEAS-2B cells (marker for NRF2 activation)
Assay: BEAS-2B NQO1 MTT Assay
Type: cell-based
Settings: Homo sapiens, BEAS-2B, 48 h, NQO1 specific activity induction, 48 hours with compound
Excerpt: NAD(P)H:quinone oxidoreductase 1 (NQO1), also called DT diaphorase, is a homodimeric FAD-containing enzyme that catalyzes obligatory NAD(P)H-dependent two-electron reductions of quinones and protects cells against the toxic and neoplastic effects of free radicals and reactive oxygen species arising from one-electron reductions. The transcription of NQO1 is finely regulated by NRF2, and thus NQO1 activity is a good marker for NRF2 activation. On day one, frozen BEAS-2B cells (ATCC) were thawed in a water bath, counted, and re-suspended at a concentration of 250,000 cells/mL. Fifty microliters of cells were plated in 384 well black clear-bottomed plates. Plates were incubated at 37° C., 5% CO2 overnight. On day two, plates were centrifuged and 50 nL of compound or controls were added to the cells. Plates were then incubated at 37° C., 5% CO2 for 48 hours. On day four, medium was aspirated from the plate and crude cell lysates were made by adding 13 uL of 1× Cell Signaling Technologies lysis buffer with 1 Complete, Mini, EDTA-free Protease Inhibitor Tablet (Roche) for each 10 mL of lysis buffer. After lysis plates were incubated for 20 minutes at room temperature. Two microliters of lysate were removed for use in Cell Titer Glo assay (Promega) and MTT cocktail was prepared (Prochaska et. al. 1998) for measurement of NQO1 activity. Fifty microliters of MTT cocktail is added to each well, plate is centrifuged, and analyzed on an Envision plate reader (Perkin Elmer) using Absorbance 570 nm label for 30 minutes. Product formation was measured kinetically and the pEC50 of NQO1 specific activity induction was calculated by plotting the change in absorbance (Delta OD/min) versus the log of compound concentration followed by 3-parameter fitting.
pEC50 is the negative log of the EC50.
EC50s<1 nM (+++++), EC50s 1 nM-10 nM (++++), EC50s 10 nM-100 nM (+++), EC50s 100 nM-1 uM (++), EC50s 1 uM-10 uM (+), EC50s>10 uM (−), or were not determined (ND).

**Q.** CCn1nnc2c(C)c([C@H](c3cc(CN4C[C@@H](C)Cc5ccccc5S4(=O)=O)c(C)s3)C(C)(C)C(=O)Nc3cccnc3)ccc21 [Example 52, (S)-3-(1-Ethyl-4-methyl-1H-benzo[d][1,2,3]triazol-5-yl)-2,2-dimethyl-3-(5-methyl-4-(((S)-4-methyl-1,1-dioxido-4,5-dihydrobenzo[f][1,2]thiazepin-2(3H)-yl)methyl)thiophen-2-yl)-N-(pyridin-3-yl)propanamide] was tested. Which EC50 did it give?
**A.** 1 to 10 nM

**Q.** Which EC50 does the source give for CCn1nnc2c(C)c([C@H](c3cc(CN4C[C@@H](C)Cc5ccc(C(F)(F)F)cc5S4(=O)=O)n(C)n3)C(C)(C)C(=O)O)ccc21 [Example 50, (S)-3-(1-Ethyl-4-methyl-1H-benzo[d][1,2,3]triazol-5-yl)-2,2-dimethyl-3-(1-methyl-5-(((S)-4-methyl-1,1-dioxido-8-(trifluoromethyl)-4,5-dihydrobenzo[f][1,2]thiazepin-2(3H)-yl)methyl)-1H-pyrazol-3-yl)propanoic Acid] here?
**A.** 1 to 10 nM

**Q.** Which EC50 does the source give for CCn1nnc2c(C)c([C@H](c3cc(CN4C[C@H](C)Cc5ncccc5S4(=O)=O)c(C)s3)C(C)(C)C(=O)O)ccc21 [Example 16, (S)-3-(1-Ethyl-4-methyl-1H-benzo[d][1,2,3]triazol-5-yl)-2,2-dimethyl-3-(5-methyl-4-(((R)-4-methyl-1,1-dioxido-4,5-dihydropyrido[2,3-f][1,2]thiazepin-2(3H)-yl)methyl)thiophen-2-yl)propanoic Acid] here?
**A.** 1 to 10 nM

**Q.** CC[C@@H]1CN(Cc2cc([C@@H](CCc3cn(CC)nn3)C(C)(C)C(=O)O)sc2C)S(=O)(=O)c2cccnc2O1 [Example 59, (S)-3-(4-(((R)-4-Ethyl-1,1-dioxido-3,4-dihydro-2H-pyrido[2,3-b][1,4,5]oxathiazepin-2-yl)methyl)-5-methylthiophen-2-yl)-5-(1-ethyl-1H-1,2,3-triazol-4-yl)-2,2-dimethylpentanoic Acid] was tested. Which EC50 did it give?
**A.** 1 to 10 nM

**Q.** For CC[C@@H]1CN(Cc2cc([C@@H](c3ccc4c(nnn4CC)c3C)C(C)(C)C(=O)O)sc2Cl)S(=O)(=O)c2ccccc2O1 [Example 3, (S)-3-(5-Chloro-4-(((R)-4-ethyl-1,1-dioxido-3,4-dihydro-2H-benzo[b][1,4,5]oxathiazepin-2-yl)methyl)thiophen-2-yl)-3-(1-ethyl-4-methyl-1H-benzo[d][1,2,3]triazol-5-yl)-2,2-dimethylpropanoic acid], which EC50 is on record?
**A.** < 1 nM

**Q.** For CC[C@@H]1CN(Cc2nc([C@@H](c3ccc4c(nnn4CC)c3C)C(C)(C)C(=O)Nc3cccnc3)sc2C)S(=O)(=O)c2cnccc2O1 [Example 28, (S)-3-(4-(((R)-4-Ethyl-1,1-dioxido-3,4-dihydro-2H-pyrido[4,3-b][1,4,5]oxathiazepin-2-yl)methyl)-5-methylthiazol-2-yl)-3-(1-ethyl-4-methyl-1H-benzo[d][1,2,3]triazol-5-yl)-2,2-dimethyl-N-(pyridin-3-yl)propanamide], which EC50 is on record?
**A.** 100 to 1000 nM

**Q.** How did the EC50 turn out when CCn1nnc2c(C)c([C@H](c3cc(CN4CC(C)(C)Oc5ncccc5S4(=O)=O)c(C)s3)C(C)(C)C(=O)O)ccc21 [Example 8, (S)-3-(4-((4,4-Dimethyl-1,1-dioxido-3,4-dihydro-2H-pyrido[2,3-b][1,4,5]oxathiazepin-2-yl)methyl)-5-methylthiophen-2-yl)-3-(1-ethyl-4-methyl-1H-benzo[d][1,2,3]triazol-5-yl)-2,2-dimethylpropanoic Acid] was run?
**A.** 1 to 10 nM

**Q.** How did the EC50 turn out when CC[C@H]1Cc2ncccc2S(=O)(=O)N(Cc2nc([C@@H](c3ccc4c(nnn4CC)c3C)C(C)(C)C(=O)Nc3cccnc3)sc2C)C1 [Example 34, (S)-3-(4-(((S)-4-Ethyl-1,1-dioxido-4,5-dihydropyrido[2,3-f][1,2]thiazepin-2(3H)-yl)methyl)-5-methylthiazol-2-yl)-3-(1-ethyl-4-methyl-1H-benzo[d][1,2,3]triazol-5-yl)-2,2-dimethyl-N-(pyridin-3-yl)propanamide] was run?
**A.** 100 to 1000 nM

**Q.** For CC[C@@H]1CN(Cc2cc([C@@H](c3ccc4c(nnn4CC)c3C)C(C)(C)C(=O)O)sc2C)Cc2ncccc2O1 [Example 60, (S)-3-(4-(((R)-2-Ethyl-2,3-dihydropyrido[2,3-f][1,4]oxazepin-4(5H)-yl)methyl)-5-methylthiophen-2-yl)-3-(1-ethyl-4-methyl-1H-benzo[d][1,2,3]triazol-5-yl)-2,2-dimethylpropanoic Acid], which EC50 is on record?
**A.** 1 to 10 nM

**Q.** For CCn1nnc2c(C)c([C@H](c3nc(CN4C[C@@H](C)Cc5cc(C(F)(F)F)ccc5S4(=O)=O)c(C)s3)C(C)(C)C(=O)O)ccc21 [Example 44, (S)-3-(1-Ethyl-4-methyl-1H-benzo[d][1,2,3]triazol-5-yl)-2,2-dimethyl-3-(5-methyl-4-(((S)-4-methyl-1,1-dioxido-7-(trifluoromethyl)-4,5-dihydrobenzo[f][1,2]thiazepin-2(3H)-yl)methyl)thiazol-2-yl)propanoic Acid], which EC50 is on record?
**A.** < 1 nM

**Q.** With CCn1nnc2c(C)c([C@H](c3cc(CN4CC(=O)N(C)CC(C)(C)C4)c(C)s3)C(C)(C)C(=O)O)ccc21 [Example 15, (S)-3-(1-Ethyl-4-methyl-1H-benzo[d][1,2,3]triazol-5-yl)-2,2-dimethyl-3-(5-methyl-4-((4,6,6-trimethyl-3-oxo-1,4-diazepan-1-yl)methyl)thiophen-2-yl)propanoic Acid] as the compound, how does the EC50 read?
**A.** 1 to 10 nM

**Q.** With CC[C@@H]1CN(Cc2cc([C@@H](CC(=O)O)c3ccc4c(nnn4CC)c3C)sc2Cl)S(=O)(=O)c2cnccc2O1 [Example 1, (S)-3-(5-Chloro-4-(((R)-4-ethyl-1,1-dioxido-3,4-dihydro-2H-pyrido[4,3-b][1,4,5]oxathiazepin-2-yl)methyl)thiophen-2-yl)-3-(1-ethyl-4-methyl-1H-benzo[d][1,2,3]triazol-5-yl)propanoic acid] as the compound, how does the EC50 read?
**A.** 100 to 1000 nM

**Q.** How did the EC50 turn out when CCn1nnc2c(C)c([C@H](c3cc(CN4C[C@@H](C)Cc5ccccc5S4(=O)=O)c(C)s3)C(C)(C)C(N)=O)ccc21 [Example 39, (S)-3-(1-Ethyl-4-methyl-1H-benzo[d][1,2,3]triazol-5-yl)-2,2-dimethyl-3-(5-methyl-4-(((S)-4-methyl-1,1-dioxido-4,5-dihydrobenzo[f][1,2]thiazepin-2(3H)-yl)methyl)thiophen-2-yl)propanamide] was run?
**A.** 10 to 100 nM

**Q.** Which EC50 does the source give for CC[C@@H]1CN(Cc2cc([C@@H](c3ccc4c(nnn4CC)c3C)C(C)(C)C(=O)O)sc2C)S(=O)(=O)c2cccnc2O1 [Example 7, (S)-3-(4-(((R)-4-Ethyl-1,1-dioxido-3,4-dihydro-2H-pyrido[2,3-b][1,4,5]oxathiazepin-2-yl)methyl)-5-methylthiophen-2-yl)-3-(1-ethyl-4-methyl-1H-benzo[d][1,2,3]triazol-5-yl)-2,2-dimethylpropanoic acid] here?
**A.** < 1 nM

**Q.** CC[C@@H]1CN(Cc2cc([C@@H](c3ccc4c(nnn4CC)c3C)C(C)(C)C(=O)O)sc2C)S(=O)(=O)c2cnccc2O1 [Example 9, (S)-3-(4-(((R)-4-Ethyl-1,1-dioxido-3,4-dihydro-2H-pyrido[4,3-b][1,4,5]oxathiazepin-2-yl)methyl)-5-methylthiophen-2-yl)-3-(1-ethyl-4-methyl-1H-benzo[d][1,2,3]triazol-5-yl)-2,2-dimethylpropanoic Acid] was tested. Which EC50 did it give?
**A.** < 1 nM

**Q.** CC[C@H]1Cc2ccccc2S(=O)(=O)N(Cc2nc([C@@H](c3ccc4c(nnn4CC)c3C)C(C)(C)C(=O)O)sc2C)C1 [Example 41, (S)-3-(4-(((S)-4-Ethyl-1,1-dioxido-4,5-dihydrobenzo[f][1,2]thiazepin-2(3H)-yl)methyl)-5-methylthiazol-2-yl)-3-(1-ethyl-4-methyl-1H-benzo[d][1,2,3]triazol-5-yl)-2,2-dimethylpropanoic Acid] was tested. Which EC50 did it give?
**A.** < 1 nM

**Q.** CC[C@@H]1CN(Cc2cc([C@@H](c3ccc4c(nnn4CC)c3C)C(C)(C)C(=O)Nc3cccnc3)sc2C)S(=O)(=O)c2ccccc2O1 [Example 51, (S)-3-(4-(((R)-4-Ethyl-1,1-dioxido-3,4-dihydro-2H-benzo[b][1,4,5]oxathiazepin-2-yl)methyl)-5-methylthiophen-2-yl)-3-(1-ethyl-4-methyl-1H-benzo[d][1,2,3]triazol-5-yl)-2,2-dimethyl-N-(pyridin-3-yl)propanamide] was tested. Which EC50 did it give?
**A.** 1 to 10 nM

Same assay, conditions: NQO1 specific activity induction, 48 hours with compound

**Q.** Which EC50 does the source give for CC[C@@H]1CN(Cc2nc(C(c3ccc4c(nnn4CC)c3C)C(C)(C)C(=O)O)sc2C)S(=O)(=O)c2ccccc2O1 (single isomer, unassigned; isomer 2) [Example 14, (R or S)-3-(4-(((R)-4-Ethyl-1,1-dioxido-3,4-dihydro-2H-benzo[b][1,4,5]oxathiazepin-2-yl)methyl)-5-methylthiazol-2-yl)-3-(1-ethyl-4-methyl-1H-benzo[d][1,2,3]triazol-5-yl)-2,2-dimethylpropanoic Acid Isomer 2] here?
**A.** 10 to 100 nM
